Laboratory results from ChEMBL document CHEMBL1137921, “Substrate analogs for the investigation of deoxyxylulose 5-phosphate reductoisomerase inhibition: synthesis and evaluation” (Bioorg Med Chem Lett, 2004).

Experiments:
[1] = biological target: T1, 1-deoxy-D-xylulose 5-phosphate reductoisomerase (Synechocystis sp. (strain PCC 6803 / Kazusa), UniProt Q55663); experiment: Binding affinity against Synechocystis strain PCC6803 DXP reductoisomerase; design: species or system Synechocystis sp. PCC 6803
T1 sequence (Q55663 whole entry): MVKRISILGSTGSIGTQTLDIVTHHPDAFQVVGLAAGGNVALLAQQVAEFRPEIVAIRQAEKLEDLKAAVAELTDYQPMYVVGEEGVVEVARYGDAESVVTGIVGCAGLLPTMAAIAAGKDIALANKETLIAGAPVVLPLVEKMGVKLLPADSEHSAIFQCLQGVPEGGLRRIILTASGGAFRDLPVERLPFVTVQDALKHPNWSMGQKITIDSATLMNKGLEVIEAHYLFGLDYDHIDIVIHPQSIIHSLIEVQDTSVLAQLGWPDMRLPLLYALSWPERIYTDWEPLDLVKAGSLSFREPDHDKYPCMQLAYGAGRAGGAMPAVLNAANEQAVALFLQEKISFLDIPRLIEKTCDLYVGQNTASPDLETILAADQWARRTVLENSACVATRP

[2] = biological target: T2, 1-deoxy-D-xylulose 5-phosphate reductoisomerase (Escherichia coli K-12, UniProt P45568); experiment: Inhibitory activity against Escherichia coli deoxyxylulose 5-phosphate reductoisomerase
T2 sequence (P45568 whole entry): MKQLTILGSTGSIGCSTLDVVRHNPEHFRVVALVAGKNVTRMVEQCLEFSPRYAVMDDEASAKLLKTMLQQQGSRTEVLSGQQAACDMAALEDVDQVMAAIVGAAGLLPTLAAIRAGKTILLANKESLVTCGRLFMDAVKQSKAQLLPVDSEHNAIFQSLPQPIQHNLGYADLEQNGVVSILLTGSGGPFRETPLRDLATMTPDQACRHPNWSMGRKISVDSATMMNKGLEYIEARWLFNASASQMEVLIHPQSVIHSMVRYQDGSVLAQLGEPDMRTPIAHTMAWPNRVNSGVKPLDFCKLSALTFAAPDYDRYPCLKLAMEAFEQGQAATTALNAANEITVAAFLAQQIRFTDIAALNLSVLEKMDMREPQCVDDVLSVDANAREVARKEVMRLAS

[3] = substrate: CC(=O)[C@@H](O)[C@H](O)CCP(=O)(O)O; experiment: Michaelis-Menten constant for Synechocystis strain PCC6803 DXP reductoisomerase; details: Synechocystis sp. PCC 6803

**Q.** With `O=CN(O)CCCP(=O)(O)O` [FOSMIDOMYCIN] as the molecule, how does the Ki [1] read?
**A.** 0.021 µM

**Q.** Which Ki [1] does the source give for `NC(=O)[C@@H](O)[C@H](O)COP(=O)(O)O` here?
**A.** 90 µM

**Q.** What does the source list for `CC(=O)[C@@H](O)CCOP(=O)(O)O`?
**A.** Ki [1]: 30 µM; Ki [2]: 120 µM

**Q.** With `CCC(=O)[C@@H](O)[C@H](O)COP(=O)(O)O` as the molecule, how does the Ki [1] read?
**A.** 630 µM

**Q.** `CC(=O)C[C@H](O)COP(=O)(O)O` was tested. Which Ki [1] did it give?
**A.** 150 µM

**Q.** What about the Ki [2] of the same molecule?
**A.** 800 µM

**Q.** For `CC(=O)[C@@H](O)[C@@H](O)COP(=O)(O)O`, which Ki [1] is on record?
**A.** 180 µM

B1: 1-deoxy-D-xylulose 5-phosphate reductoisomerase (Synechocystis sp. (strain PCC 6803 / Kazusa)), Q55663 (protein)
chain: T1 sequence (Q55663 whole entry)
**Q.** How did the Km [3] turn out when B1 was run?
**A.** 690 µM
